Results on one molecule are retold here after patent US20100234439A1, “THERAPEUTIC AGENTS” (priority 2006, published 2010).

By pIC50 is commonly meant the negative decadic logarithm of the IC50, by convention in mol/L. High values mean a small IC50, low ones a large IC50.

This assay deals with T1, CB1 receptor (Homo sapiens, UniProt P21554).
T1 construct: expressed in transfected cells; membranes prepared from them
The assay can be described thus: [35S]-GTPγS binding assay, membranes from cells stably transfected with the CB1 gene, inhibition of CP55940 (EC80) stimulated activity. It counts as biochemical. Particulars: concentration giving half maximal inhibition of GTPγS binding; EC80 concentration of agonist CP55940; 30° C., 45 min. The method, then: The compound of the present invention is active against the receptor product of the CB1 gene. The affinity of the compound of the invention for central cannabinoid receptors is demonstrable in methods described in Devane et al, Molecular Pharmacology, 1988, 34,605 or those described in WO01/70700 or EP 656354. Alternatively the assay may be performed as follows.
10 μg of membranes prepared from cells stably transfected with the CB1 gene were suspended in 200 μl of 100 mM NaCl, 5 mM MgCl2, 1 mM EDTA, 50 mM HEPES (pH 7.4), 1 mM DTT, 0.1% BSA and 100 μM GDP. To this was added an EC80 concentration of agonist (CP55940), the required concentration of test compound and 0.1 μCi [^35S]-GTPγS.
The reaction was allowed to proceed at 30° C. for 45 min. […] Filters were then covered with scintilant and counted for the amount of [^35S]-GTPγS retained by the filter.
Activity is measured in the absence of all ligands (minimum activity) or in the presence of an EC80 concentration of CP55940 (maximum activity). […] At various concentrations of novel ligand, activity is calculated as a percentage of the maximum activity and plotted. The data are fitted using the equation y=A+((B−A)/1+((C/x)ÙD)) and the IC50 value determined as the concentration required to give half maximal inhibition of GTPγS binding under the conditions used.
For orientation: Binding of GTPγS marks nucleotide exchange on a G protein.

pIC50: −log10 of the molar value.

T1 sequence (P21554 whole entry): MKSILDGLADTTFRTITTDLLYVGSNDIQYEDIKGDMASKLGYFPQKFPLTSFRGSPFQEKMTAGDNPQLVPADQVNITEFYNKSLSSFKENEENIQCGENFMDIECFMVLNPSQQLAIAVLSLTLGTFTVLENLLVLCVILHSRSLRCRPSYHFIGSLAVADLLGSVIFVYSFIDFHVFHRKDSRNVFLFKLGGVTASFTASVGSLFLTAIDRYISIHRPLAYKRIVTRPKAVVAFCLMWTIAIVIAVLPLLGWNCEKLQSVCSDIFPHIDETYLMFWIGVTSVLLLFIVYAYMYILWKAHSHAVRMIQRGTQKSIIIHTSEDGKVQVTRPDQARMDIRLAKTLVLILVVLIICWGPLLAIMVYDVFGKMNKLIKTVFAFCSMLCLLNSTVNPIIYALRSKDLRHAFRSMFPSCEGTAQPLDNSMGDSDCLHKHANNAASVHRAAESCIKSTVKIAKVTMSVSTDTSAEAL

In turn, `O=C(N[C@@H]1CCCC[C@@H]1O)c1nn(-c2ccc(Cl)cc2Cl)c(-c2ccc(OS(=O)(=O)CCC(F)(F)F)cc2)c1CO` (single isomer, unassigned) [Example 1, (+)3,3,3-Trifluoro-propane-1-sulfonic acid 4-[2-(2,4-dichloro-phenyl)-5-(2-hydroxy-cyclohexylcarbamoyl)-4-hydroxymethyl-2H-pyrazol-3-yl]-phenyl ester] gave a pIC50 of 9.00.
